Substitutions are numbered along the chain they refer to.
Assays:
[1] = biological target: T1, p.Gly143Glu CES1 (Homo sapiens, UniProt P23141, G143E); assay: MPH hydrolysis to ritalinic acid by S9 of cells expressing p.Gly143Glu CES1 (HPLC); format: biochemical; conditions: S9 500 μg/ml, even at very high S9 concentration (2 mg/ml); 37° C., 2 h
T1 construct: inserting a stop codon after CES1A1 gene to yield the constructs expressing CES1 without V5-His tag; expressed in transfected cells
T1 sequence (P23141 18-567 G143E/Y526T): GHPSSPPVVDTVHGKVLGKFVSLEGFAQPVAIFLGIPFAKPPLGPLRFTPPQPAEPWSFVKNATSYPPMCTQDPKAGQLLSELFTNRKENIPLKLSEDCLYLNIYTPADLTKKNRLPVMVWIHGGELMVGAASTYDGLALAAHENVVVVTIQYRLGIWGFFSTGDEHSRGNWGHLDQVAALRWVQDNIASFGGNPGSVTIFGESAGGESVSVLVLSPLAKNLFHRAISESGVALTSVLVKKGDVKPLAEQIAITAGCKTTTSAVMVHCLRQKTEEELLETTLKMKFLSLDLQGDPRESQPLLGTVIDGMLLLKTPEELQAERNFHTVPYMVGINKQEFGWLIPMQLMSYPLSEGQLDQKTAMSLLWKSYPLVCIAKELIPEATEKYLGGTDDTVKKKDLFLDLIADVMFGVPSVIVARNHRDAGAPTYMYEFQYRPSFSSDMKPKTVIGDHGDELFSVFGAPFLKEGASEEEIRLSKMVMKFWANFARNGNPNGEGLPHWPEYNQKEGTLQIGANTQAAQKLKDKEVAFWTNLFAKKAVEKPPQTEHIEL
Description: (§1) The desired plasmid was designed such that the recombinant CES1 would be expressed in mammalian cells with a V5-His tag to facilitate detection and purification. Additionally, another plasmid was generated by inserting a stop codon after CES1A1 gene to yield the constructs expressing CES1 without V5-His tag. […] Thus, only untagged CES1 and its associated mutants were used in the enzymatic hydrolysis study. Two constructs of CES1 mutations, p.Gly143Glu and p.Asp260fs, were generated using a site-directed mutagenesis assay. All constructs were subjected to DNA sequencing analysis to confirm that the desired plasmids were obtained. The identified CES1A1 plasmids (WT, p.Gly143Glu, and p.Asp260fs) were co-transfected with pOG44 plasmid at a ratio of 1:10 into Flp-In™-293 cells using […] (Invitrogen, Carlsbad, Calif.). Additionally, the self-ligated pcDNA5/FRT/V5-His-TOPO® vector was included as a vector control. Twenty-four hours after transfection, cells were washed with PBS and fresh complete medium (Dulbecco's modified Eagle's medium containing 10% fetal bovine serum) was added. […]
(§2) After attaining approximately 95% confluence, cells were rinsed and harvested in PBS containing 10 mM HEPES (pH 7.4). […] The protein concentration was determined using a Pierce BCA assay kit (Rockford, Ill.).
(§3) For the study of MPH hydrolysis, the reaction was conducted in 1.5 mL eppendorf tubes with a final S9 concentration of 0.5 mg/mL at a total volume of 100 μL. […] Concentrations of the primary phase I MPH metabolite produced via hydrolysis, ritalinic acid (RA), was determined utilizing an established HPLC method described below.
(§4) Thus, following the enzymatic assay, the values determined for spontaneous PNP and RA hydrolysis were subtracted from the total PNP and RA production. […] All collected data were fit to the Michaelis-Menten equation, and kinetic parameters were calculated using nonlinear regression analysis with Graphpad Prism software (Graphpad Software Inc., San Diego, Calif.) […]

[2] = biological target: T2, p.Asp260fs CES1 (Homo sapiens, UniProt P23141); assay: MPH hydrolysis to ritalinic acid by S9 of cells expressing p.Asp260fs CES1 (HPLC); format: biochemical; conditions: S9 500 μg/ml, even at very high S9 concentration (2 mg/ml); 37° C., 2 h
T2 construct: a frameshift mutation that alters residues 260-299 and causes early truncation at a premature stop codon; expressed in transfected cells
T2 sequence (P23141 with tags, fused parts or gaps): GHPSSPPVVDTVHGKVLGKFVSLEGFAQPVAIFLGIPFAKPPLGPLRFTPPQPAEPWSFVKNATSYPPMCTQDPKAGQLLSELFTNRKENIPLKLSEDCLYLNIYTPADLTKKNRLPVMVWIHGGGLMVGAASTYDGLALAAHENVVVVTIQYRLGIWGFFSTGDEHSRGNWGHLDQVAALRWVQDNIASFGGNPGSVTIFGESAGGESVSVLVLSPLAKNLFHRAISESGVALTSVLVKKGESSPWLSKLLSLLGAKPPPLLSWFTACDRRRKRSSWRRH
Description: as §1, §2, §3, §4

[3] = Pharmacokinetic study of orally administered racemic MPH in normal volunteers; format: in vivo, human
Experimental: Analysis of Pharmacokinetic, Hemodynamic, and Statistical Data. Standard pharmacokinetic analyses were applied to the MPH data using WinNonLin software (Pharsight, Mountainview, Calif.) and are described in a previous publication.^10 The AUC, Cmax, and t1/2 were analyzed using the Extreme Studentized Deviate (ESD) single-outlier procedure^12 to determine whether the parameter measurements for the slow metabolizer constituted true statistical outliers. For each parameter, the ESD procedure confirmed the measurement as an outlier at the p<0.01 level. Because this procedure is known to be conservative, the data from the aberrant metabolizer were reassessed using a similar procedure with respect to the normal participants only.

[4] = Hemodynamic measurements after MPH administration in normal volunteers; format: in vivo, human; conditions: after 0.3 mg/kg MPH
Description: The inventor considered the set of measures for each endpoint to be a multivariate vector, and assessed the Mahalanobis distance for subject's measurements. The Mahalanobis distance, a measure of distance from a central multivariate mean relative to the variance of the endpoints, is useful for identifying outliers via referral to the F distribution. This analysis assumes no explicit model of time effects on the vital signs, but recognizes the potential correlation between the repeated measures over time on each participant, and tests for simultaneous differences from the mean over the set of time points while controlling the Type I error rate. For each of the four endpoint vectors, the inventor tested the a priori hypothesis that the slow metabolizer's measurements were outliers by comparison to Wilks's critical values (α=0.0125, critical value: 13.8).^13 Because only testing outlier status for this single participant was tested, no Bonferroni corrections were made within participants; however, each test was performed at the Bonferroni-corrected α=0.0125 level to adjust for the four endpoints being tested. There were little differences in plasma MPH concentrations between the slow metabolizer and their study peers during the 0-1.5 h time frame (FIG. 6), which is likely due to a delay in tablet disintegration, dissolution and absorption. After this initial period MPH is subject to first-pass metabolism and hCES1 mediated stereoselective hydrolysis and the two concentration vs. time curves rapidly diverge from one another (FIGS. 2-3). Therefore, based on this finding and a visual examination of the data it was decided that a second analysis which excluded measurements taken during the 0-1.5 hr time points would be more appropriate.

[5] = Spontaneous hydrolysis in reaction buffer; format: physicochemical; conditions: PBS containing 10 mM HEPES, pH 7.4
Experimental: Thus, following the enzymatic assay, the values determined for spontaneous PNP and RA hydrolysis were subtracted from the total PNP and RA production. […] All collected data were fit to the Michaelis-Menten equation, and kinetic parameters were calculated using nonlinear regression analysis with Graphpad Prism software (Graphpad Software Inc., San Diego, Calif.)

[6] = biological target: T1, p.Gly143Glu CES1; assay: Oseltamivir phosphate hydrolysis by p.Gly143Glu hCES1 S9 (HPLC); format: biochemical; conditions: compared to WT enzyme
[7] = biological target: T2, p.Asp260fs CES1; assay: Oseltamivir phosphate hydrolysis by p.Asp260fs hCES1 S9 (HPLC); format: biochemical; conditions: measured by conversion to OC
[8] = substrate: CCOC(=O)C1=C[C@@H](OC(CC)CC)[C@H](NC(C)=O)[C@@H](N)C1; assay: Oseltamivir phosphate hydrolysis to oseltamivir carboxylate by WT hCES1 S9 (HPLC); format: biochemical, human; conditions: other: OP conversion to OC, 37° C., 10 min
[9] = substrate: COC(=O)[C@H](c1ccccc1)[C@H]1CCCCN1; assay: purified protein, by the assay type; conditions: other: MPH hydrolysis, S9 0.5 mg/mL, 37° C., 2 hours, mean ± S.D. (n = 3)

Question: For `COC(=O)C(c1ccccc1)C1CCCCN1` (racemic) [MPH, methylphenidate], which “catalytic activity towards MPH hydrolysis” value [1] is on record?
Answer: The value was “too low to be determined”.

Question: What about the “catalytic activity towards MPH hydrolysis” value [2] of the same molecule?
Answer: The value was “too low to be determined”.

Question: And the “Cmax of slow metabolizer relative to the mean of the other subjects” value ([3]; single oral 0.3 mg/kg racemic MPH, plasma)?
Answer: Its value is “approximately 7 fold”.

Question: And the “Diastolic Blood Pressure, Maximum Value, Mean (SD)” value ([4]; 19 study peers)?
Answer: The value was 68 (8).

Question: And the “Mean Arterial Pressure, Maximum Value, Mean (SD)” value ([4]; 19 study peers)?
Answer: The value was 85 (8).

Question: What about the “Pulse, Maximum Value, Mean (SD)” value ([4]; 19 study peers) of the same molecule?
Answer: Its value is 74 (11).

Question: And the “Systolic Blood Pressure, Maximum Value, Mean (SD)” value ([4]; 19 study peers)?
Answer: Its value is 120 (10).

Question: What about the “Diastolic Blood Pressure, Maximum Value, Outlier” value ([4]; slow metabolizer) of the same molecule?
Answer: Its value is 78.

Question: What about the “Mean Arterial Pressure, Maximum Value, Outlier” value ([4]; slow metabolizer) of the same molecule?
Answer: Its value is 97.

Question: And the “Pulse, Maximum Value, Outlier” value ([4]; slow metabolizer)?
Answer: The value was 93.

Question: And the “Systolic Blood Pressure, Maximum Value, Outlier” value ([4]; slow metabolizer)?
Answer: Its value is 138.

Question: What about the “stability in reaction buffer” value [5] of the same molecule?
Answer: Its value is “spontaneously hydrolyzed”.

Question: What does the source list for `CCOC(=O)C1=C[C@@H](OC(CC)CC)[C@H](NC(C)=O)[C@@H](N)C1` [OP, oseltamivir phosphate]?
Answer: enzymatic activity on oseltamivir hydrolysis [6]: Profoundly decreased enzymatic activity; enzymatic activity on oseltamivir hydrolysis [7]: did not result in any detectable hydrolysis; enzymatic activity on oseltamivir hydrolysis ([7]; listed as oseltamivir): No catalytic activity

Question: What does the source list for `CCOC(=O)C(c1ccccc1)C1CCCCN1` (stereo not shown) [ethylphenidate]?
Answer: ethylphenidate concentrations after co-administration of methylphenidate with ethanol ([3]; every subject except the slow metabolizer): Detectable concentrations; ethylphenidate formation after methylphenidate and ethanol administered together ([3]; slow metabolizer): unable to form ethylphenidate

B1: WT hCES1 (Homo sapiens) (protein)
chain: T1 sequence (P23141 18-567 G143E/Y526T) with E126G, T509Y
notes: inserting a stop codon after CES1A1 gene to yield the constructs expressing CES1 without V5-His tag; expressed in transfected cells
Question: What does the source list for B1?
Answer: Km [8]: 1381.6 µM; Vmax [8]: 145.3 nmole/min/mg protein

B2: WT CES1 (Homo sapiens) (protein)
chain: T1 sequence (P23141 18-567 G143E/Y526T) with E126G, T509Y
Question: Which results are given for B2?
Answer: Km [9]: 663.5 ± 210.0 µM; Vmax [9]: 177.2 ± 29.6 pmole/min/mg protein; Vmax/Km [9]: 0.27 μl/min/mg protein
